Results on eight molecules are retold here after patent US9226509B2, “Phagodeterrent compounds of fungal origin” (Consiglio Nazionale Delle Ricerche, priority 2011, dated 2016).

The first assay concerns aphid Rhopalosiphum padi. The assay is described as follows: Assay of the phagodeterrent activity of the R—OH alcohols (two-leaf choice test on wheat leaves in Petri dishes). It is filed as in vivo. Particulars: alcohol 0.075 mM in 5% methanol aqueous suspension; wheat leaves; recorded each hour for 8 hours. The method, then:
Treatment of wheat leaves consisted of immersion of the same for 10 seconds in aqueous suspensions of 5% methanol of the different alcohols, some of which were also tested at different concentrations.
As a control, the same number of leaves was prepared by immersion in an aqueous solution of 5% methanol only.
Assay of the Phaqodeterrent Activity of the R—OH Alcohols:
Petri dishes 9 cm in diameter were used, into each of which two wheat leaves were arranged in parallel and separated from one another by a distance of approximately 4 cm; one leaf was treated with the suspension in 5% methanol of alcohol at various concentrations, and the other control leaf was washed with a solution of 5% methanol. Aphids of the species Rhopalosiphum padi were introduced to the dishes (one per dish) at equal distance from the two leaves.
For each test, 10 aphids were used and the same test was repeated at least 12 times, for at least 120 aphids. The number of aphids present on the treated leaves and on the control leaves was recorded each hour for a total of 8 hours.
The raw data relating to the food choices of the aphids were analysed using the Generalised Linear Model (GLM) procedure for repeated measurements (SPSS release 15.01) and reported in Table 1. The differences of the media between the number of aphids per leaf at each […] and the number of aphids on corresponding control leaves were analysed and corrected by using the Bonferroni test for multiple comparisons.
For `CCCCCCCCCCCCCCCO` [Pentadecanol], the “Bonferroni test: Treated media (mean number of aphids on treated leaves)” value (“Bonferroni test: Treated media” for short) was 3.073 ± 0.335.

Staying with this assay, now noted: alcohol 0.075 mM; treated vs 5% methanol control leaf.
As to `CCCCCCCCCCCCCCCO` [Pentadecanol], the “Bonferroni test: significance of treated vs control media” value is listed as “** (** P < 0.01)”.

The assay is the same for the next values; noted with them: alcohol 0.15 mM in 5% methanol aqueous suspension; wheat leaves; recorded each hour for 8 hours.
For the molecule `CCCCCCCCCCCCCCCCCO` [Heptadecanol], the “Bonferroni test: Treated media” value is on record as 3.240 ± 0.410.
Same read-out and setting: as for `CCCCCCCCCCCCCCO` [Tetradecanol], the figure is 2.375 ± 0.370.
On to `CCCCCCCCCCCCCCCO` [Pentadecanol], for which the “Bonferroni test: Treated media” value is recorded as 3.406 ± 0.405.
The same measure, in the same setting: the value for `CCCCCCCCCCCCCCCCO` [Hexadecanol] was 3.938 ± 0.429.

The assay is the same for the next values; noted with them: alcohol 0.15 mM; treated vs 5% methanol control leaf.
`CCCCCCCCCCCCCCCCCO` [Heptadecanol]: the “Bonferroni test: significance of treated vs control media” value is recorded as “** (** P < 0.01)”.
The same measure, in the same setting: as for `CCCCCCCCCCCCCCO` [Tetradecanol], the entry is “** (** P < 0.01)”; as for `CCCCCCCCCCCCCCCO` [Pentadecanol], “** (** P < 0.01)”.
In the case of `CCCCCCCCCCCCCCCCO` [Hexadecanol], the “Bonferroni test: significance of treated vs control media” value was “* (*P < 0.05)”.

The same assay, now with this note: alcohol 0.3 mM in 5% methanol aqueous suspension; wheat leaves; recorded each hour for 8 hours.
`CCCCCCCCCCCCCCCCCO` [Heptadecanol]: the “Bonferroni test: Treated media” value came to 3.063 ± 0.532.
`CCCCCCCCCCCCCCO` [Tetradecanol]: the “Bonferroni test: Treated media” value was 3.271 ± 0.217.
On the same count and under the same terms, as for `CCCCCCCCCCCCCCCO` [Pentadecanol], the figure is 2.271 ± 0.283.
On the same count and under the same terms, the value for `CCCCCCCCCCCCCCCCO` [Hexadecanol] was 2.635 ± 0.323.

The assay is the same for the next values; noted with them: alcohol 0.3 mM; treated vs 5% methanol control leaf.
`CCCCCCCCCCCCCCCCCO` [Heptadecanol]: the “Bonferroni test: significance of treated vs control media” value was “** (** P < 0.01)”.
Same read-out and setting: the value for `CCCCCCCCCCCCCCO` [Tetradecanol] was “** (** P < 0.01)”; that for `CCCCCCCCCCCCCCCO` [Pentadecanol] was “** (** P < 0.01)”.
With `CCCCCCCCCCCCCCCCO` [Hexadecanol], the “Bonferroni test: significance of treated vs control media” value was “** (** P < 0.01)”.

The same assay, now with this note: alcohol 0.6 mM in 5% methanol aqueous suspension; wheat leaves; recorded each hour for 8 hours.
Regarding `CCCCCCCCCCCCCCCCCO` [Heptadecanol], the “Bonferroni test: Treated media” value worked out at 2.177 ± 0.298.
`CCCCCCCCCCCCCCO` [Tetradecanol]: the “Bonferroni test: Treated media” value was 2.365 ± 0.264.
Same read-out and setting: as for `CCCCCCCCCCCCCCCO` [Pentadecanol], the figure is 2.385 ± 0.237; as for `CCCCCCCCCCCCCCCCO` [Hexadecanol], 2.281 ± 0.371.

The same assay, now with this note: alcohol 0.6 mM; treated vs 5% methanol control leaf.
Take `CCCCCCCCCCCCCCCCCO` [Heptadecanol]: the “Bonferroni test: significance of treated vs control media” value is listed as “** (** P < 0.01)”.
`CCCCCCCCCCCCCCO` [Tetradecanol]: the “Bonferroni test: significance of treated vs control media” value is recorded as “** (** P < 0.01)”.
Still for that read-out and setting: the value for `CCCCCCCCCCCCCCCO` [Pentadecanol] was “** (** P < 0.01)”; that for `CCCCCCCCCCCCCCCCO` [Hexadecanol] was “** (** P < 0.01)”.

The same assay, now with this note: alcohol 1.2 mM in 5% methanol aqueous suspension; wheat leaves; recorded each hour for 8 hours.
Take Octadecenol: the “Bonferroni test: Treated media” value is given as 2.469 ± 0.333.
With `CCCCCCCC/C=C\CCCCCCCCO` [Cis-9-octadecenol], the “Bonferroni test: Treated media” value stood at 2.281 ± 0.283.
Still for that read-out and setting: the value for `CCCCCCCCCCCCCCCCCO` [Heptadecanol] was 1.094 ± 0.294; that for `CCCCCCCCCCCCCCCCCCCO` [Nonadecanol] was 3.427 ± 0.391.
Same read-out and setting: as for `CCCCCCCCCCCCCCCCCCCCO` [Eicosanol], the figure is 3.042 ± 0.303; as for `CCCCCCCCCCCCCCO` [Tetradecanol], 1.938 ± 0.322; as for `CCCCCCCCCCCCCCCO` [Pentadecanol], 1.365 ± 0.301.
For `CCCCCCCCCCCCCCCCO` [Hexadecanol], the “Bonferroni test: Treated media” value is reported as 1.308 ± 0.315.

The assay is the same for the next values; noted with them: alcohol 1.2 mM; treated vs 5% methanol control leaf.
On to Octadecenol, for which the “Bonferroni test: significance of treated vs control media” value is on record as “** (** P < 0.01)”.
In the case of `CCCCCCCC/C=C\CCCCCCCCO` [Cis-9-octadecenol], the “Bonferroni test: significance of treated vs control media” value is “** (** P < 0.01)”.
Still for that read-out and setting: the value for `CCCCCCCCCCCCCCCCCO` [Heptadecanol] was “** (** P < 0.01)”.
Same read-out and setting: the value for `CCCCCCCCCCCCCCCCCCCO` [Nonadecanol] was “* (*P < 0.05)”.
The same measure, in the same setting: the value for `CCCCCCCCCCCCCCCCCCCCO` [Eicosanol] was “** (** P < 0.01)”; that for `CCCCCCCCCCCCCCO` [Tetradecanol] was “** (** P < 0.01)”; that for `CCCCCCCCCCCCCCCO` [Pentadecanol] was “** (** P < 0.01)”.
As to `CCCCCCCCCCCCCCCCO` [Hexadecanol], the “Bonferroni test: significance of treated vs control media” value is given as “** (** P < 0.01)”.
